Laboratory results as given in patent US20070178152A1, “Carboxyalkylcellulose esters for administration of poorly soluble pharmaceutically active agents” (priority 2005, published 2007).
Where “and” joins values, the source holds several entries; their conditions need not be identical. Equal entries are not always repeated. Blank lines part the entries; values can stand above or below the compound they belong to.

How the values were obtained:
[1] = Determination of % crystallinity by X-ray; type: physicochemical
Description: Determination of % Crystallinity by X-ray.
All samples were run on a Scintag PAD V diffractometer using Cu K-alpha X-ray.
For each polymer or drug used in this study a neat sample was obtained. A known weight of each species was mixed with a know weight of corundum, Al2O3, diffraction standard. Each mixture was pelletized with a hydraulic press and the XRD pattern of the pellet was measured from 5 to 45 degree scattering angle. A diffraction response factor, R, was calculated for each species according to: R=wc/ws*ls/lc where wc id the weight fraction of corundum, ws is the weight fraction of the species of interest, lc is the net intensity of the major diffraction line of corrundum and is the net intensity of the major diffraction line of the drug or in the case of the polymers, the net intensity of the maximum of the amorphous scattering curve.
Samples were pelletized with a hydraulic press and the XRD pattern of the pellet was measured from 5 to 45 degree scattering angle. The net intensity of the maximum of the amorphous scatter from the polymer, lp, and the net intensity of the major diffraction line of the drug, ld, were determined from the resulting scattering curve. The wt % crystalline drug was calculated from: % crystalline drug=(ld/Rd)/(ld/Rd+lp/Rp)×100 where Rd is the response factor for the drug and Rp is the response factor for the polymer.

[2] = Dissolution of carbamazepine and carbamazepine solid dispersions in SIFsp, pH 6.8; type: physicochemical; conditions: for % Drug Released / Total Drug Released: SIFsp pH 6.8, gelatin capsule; for Average % Released: carbamazepine
Description: All dissolution studies were performed on a Varian VK7025 Dissolution Apparatus equipped with a Varian VK8000 Fraction Collector
HPLC Methods for Evaluating Dissolution Aliquots:
Determination of Weight % Phenytoin, Carbamazepine, Glyburide, or Griseofulvin.
Mobile Phase: 55% acetonitrile/45% ammonium acetate buffer (2.6 g NH4OAc/L H2O with pH adjusted to pH˜5.25 with glacial acetic acid)
Column: Agilent Eclipse XDB-C8, 4.6 mm×150 mm×5 μm
Detection: UV 254 nm (UV 214 nm can also be used for phenytoin or carbamazepine, UV 291 nm can also be used for griseofulvin); typically five signals were selected from UV 214 nm, 222 nm, 254 nm, 287 nm, 291 nm, and/or 325 nm were collected for each sample.
Simulated Intestinal Fluid, without pancreatin, pH 6.8 (SIFsp, pH 6.8)—Added monobasic potassium phosphate (KH2PO4, 34 g) to a 4000-mL beaker. Added deionized/polished water (2000 mL) and mixed using a magnetic stir bar until the KH2PO4 is completely dissolved. Added 0.2 N sodium hydroxide (NaOH, 590 mL) and stirred. The pH was adjusted to pH 6.8±0.1 using 0.2 N NaOH. The sample was diluted with deionized/polished water to a final volume of 5000 mL.
The SIFsp media was heated to ˜45° C. in four 2000-mL Kimax bottles in an oven. The sample was degassed according to USP protocol by filtering through a 0.45 μm membrane filter (Pall, Supor-450, 0.45 μm, 90 mm, part # 60200, Lot # 43214) and stirring under vacuum for 5 minutes.
Dissolution Conditions #1.
Dissolution Conditions #2.
These Examples describe the dissolution of carbamazepine and carbamazepine solid dispersions by evaluating the samples described in Examples 91-99. SlFsp, pH 6.8 media preparation was described in the Materials and Methods section.
Samples were transferred into gelatin capsules (Capsugel, size OCS, Lot #624282) using a manual single capsule filler. The weight of each capsule and the amount of sample added are found in Table 17 (Capsule Description).

- wt % Crystal (X-ray) ([1]; glyburide/CMCAB solid dispersions and physical blends (Table 10)): 100 wt %
Compound: COc1ccc(Cl)cc1C(=O)NCCc1ccc(S(=O)(=O)NC(=O)NC2CCCCC2)cc1 [Example 113, Glyburide]

- wt % Crystal (X-ray) ([1]; carbamazepine/CMCAB solid dispersions and physical blends (Table 8)): 100 wt %
- % Drug Released ([2]; 20 min): 33.9384% and 38.8298%
- Total Drug Released ([2]; 20 min): 9.4293 mg and 10.5423 mg
- % Drug Released ([2]; 30 min): 44.1249% and 55.2412%
- Total Drug Released ([2]; 30 min): 12.2594 mg and 14.9980 mg
- % Drug Released ([2]; 60 min): 59.6056% and 68.7527%
- Total Drug Released ([2]; 60 min): 16.5605 mg and 18.6664 mg
- % Drug Released ([2]; 120 min): 68.4090% and 79.5856%
- Total Drug Released ([2]; 120 min): 19.0064 mg and 21.6075 mg
- % Drug Released ([2]; 180 min): 67.5738% and 72.0943%
- Total Drug Released ([2]; 180 min): 18.7744 mg and 19.5736 mg
- % Drug Released ([2]; 240 min): 67.7652% and 72.6520%
- Total Drug Released ([2]; 240 min): 18.8275 mg and 19.7250 mg
- % Drug Released ([2]; 300 min): 67.6548% and 72.9162%
- Total Drug Released ([2]; 300 min): 18.7969 mg and 19.7968 mg
- % Drug Released ([2]; 360 min): 72.4305% and 71.9068%
- Total Drug Released ([2]; 360 min): 20.1237 mg and 19.5227 mg
- % Drug Released ([2]; 450 min): 67.4606% and 70.7122%
- Total Drug Released ([2]; 450 min): 18.7429 mg and 19.1984 mg
- Average % Released ([2]; SIFsp pH 6.8, 10 min): 6.7739%
- Average % Released ([2]; SIFsp pH 6.8, 20 min): 36.3841%
- Average % Released ([2]; SIFsp pH 6.8, 30 min): 49.6830%
- Average % Released ([2]; SIFsp pH 6.8, 60 min): 64.1792%
- Average % Released ([2]; SIFsp pH 6.8, 120 min): 73.9973%
- Average % Released ([2]; SIFsp pH 6.8, 180 min): 69.8341%
- Average % Released ([2]; SIFsp pH 6.8, 240 min): 70.2086%
- Average % Released ([2]; SIFsp pH 6.8, 300 min): 70.2855%
- Average % Released ([2]; SIFsp pH 6.8, 360 min): 72.1686%
- Average % Released ([2]; SIFsp pH 6.8, 450 min): 69.0864%
Compound: NC(=O)N1c2ccccc2C=Cc2ccccc21 [Example 95, Carbamazepine]

- wt % Crystal (X-ray) ([1]; phenytoin/polymer solid dispersions and physical blends (Table 6)): 100 wt %
Compound: O=C1NC(=O)C(c2ccccc2)(c2ccccc2)N1 [Example 78, Phenytoin]
